Two molecules from publication PMC3979805, “Identification of Resveratrol Oligomers as Inhibitors of Cystic Fibrosis Transmembrane Conductance Regulator by High-Throughput Screening of Natural Products from Chinese Medicinal Plants” (PLoS ONE, 2014) can be followed below.

Test [1] deals with T1, cystic fibrosis transmembrane conductance regulator (CFTR) (Homo sapiens, UniProt P13569).
T1 construct: wild-type human CFTR stably expressed in FRT cells
Kind of test: EYFP-H148Q iodide influx assay in FRT cells; excised inside-out patch-clamp ([…], nearly irreversible). Format: cell-based. On the technique in general: The patch-clamp technique gives a direct electrical read-out from membranes.

Test [2] addresses T1, cystic fibrosis transmembrane conductance regulator (CFTR). Kind of test: EYFP-H148Q iodide influx assay in FRT cells; excised inside-out patch-clamp ([…], reversible). Format: cell-based.

One may read the IC50 as the point on the concentration scale where inhibition reaches its midpoint. The low end stands for higher potency, the high end for lower potency.

T1 sequence (P13569 whole entry): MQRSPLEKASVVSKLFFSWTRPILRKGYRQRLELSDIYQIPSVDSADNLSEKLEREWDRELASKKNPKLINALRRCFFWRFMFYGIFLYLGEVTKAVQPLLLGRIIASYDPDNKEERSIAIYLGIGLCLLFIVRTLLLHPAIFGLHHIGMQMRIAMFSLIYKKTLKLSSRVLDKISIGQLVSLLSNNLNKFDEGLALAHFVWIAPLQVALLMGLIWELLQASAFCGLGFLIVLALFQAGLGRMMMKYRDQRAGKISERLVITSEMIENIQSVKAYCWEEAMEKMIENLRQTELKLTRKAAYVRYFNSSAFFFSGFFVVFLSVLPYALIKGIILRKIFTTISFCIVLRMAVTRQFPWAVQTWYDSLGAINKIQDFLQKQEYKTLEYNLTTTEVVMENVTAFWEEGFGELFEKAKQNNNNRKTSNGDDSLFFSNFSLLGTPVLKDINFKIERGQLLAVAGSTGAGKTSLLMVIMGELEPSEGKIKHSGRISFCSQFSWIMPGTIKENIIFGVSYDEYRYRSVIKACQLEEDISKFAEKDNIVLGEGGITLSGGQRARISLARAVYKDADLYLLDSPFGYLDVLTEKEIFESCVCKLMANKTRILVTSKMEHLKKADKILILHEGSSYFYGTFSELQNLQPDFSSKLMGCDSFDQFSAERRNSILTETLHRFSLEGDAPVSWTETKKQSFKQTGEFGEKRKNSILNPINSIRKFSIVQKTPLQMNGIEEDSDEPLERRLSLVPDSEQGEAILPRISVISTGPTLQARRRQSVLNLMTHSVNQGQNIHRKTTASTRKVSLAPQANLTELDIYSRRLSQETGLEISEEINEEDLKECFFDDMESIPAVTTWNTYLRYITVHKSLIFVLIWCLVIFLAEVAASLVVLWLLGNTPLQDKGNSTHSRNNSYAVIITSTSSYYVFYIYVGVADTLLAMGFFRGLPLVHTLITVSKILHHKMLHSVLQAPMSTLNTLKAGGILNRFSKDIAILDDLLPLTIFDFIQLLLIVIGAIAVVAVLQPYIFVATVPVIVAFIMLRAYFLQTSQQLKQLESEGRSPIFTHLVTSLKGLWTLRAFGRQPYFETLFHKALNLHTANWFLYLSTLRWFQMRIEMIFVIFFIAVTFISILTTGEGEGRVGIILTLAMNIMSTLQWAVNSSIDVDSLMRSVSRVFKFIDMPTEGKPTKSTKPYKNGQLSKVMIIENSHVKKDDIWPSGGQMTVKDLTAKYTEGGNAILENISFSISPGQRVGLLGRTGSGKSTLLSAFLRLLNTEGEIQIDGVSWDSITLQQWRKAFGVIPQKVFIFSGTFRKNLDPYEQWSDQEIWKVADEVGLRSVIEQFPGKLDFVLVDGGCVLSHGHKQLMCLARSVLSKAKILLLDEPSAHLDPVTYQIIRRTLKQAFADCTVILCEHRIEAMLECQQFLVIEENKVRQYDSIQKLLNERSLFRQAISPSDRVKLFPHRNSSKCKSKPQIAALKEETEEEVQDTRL

For `Oc1ccc([C@H]2c3c(O)cc(O)cc3[C@H]3c4c(cc(O)cc4[C@H]2c2cc(/C=C/c4cc(O)cc5c4[C@H](c4cc(O)cc(O)c4)[C@@H](c4ccc(O)cc4)O5)ccc2O)O[C@@H]3c2ccc(O)cc2)cc1` [RV, r-2-viniferin], in test [1], the IC50 is ~20 µM.
Consider `Oc1ccc(/C=C/c2cc(O)cc3c2[C@H](c2cc(O)cc(O)c2)[C@@H](c2ccc(O)cc2)O3)cc1` [TV, trans-ε-viniferin], for which, in test [2], the IC50 is ~20 µM.
